Measurements reported in US12612412B2, “Antiviral heterocyclic compounds” (Enanta Pharmaceuticals, Inc., priority 2021, dated 2026).

These compounds were tested on HMPV clinical isolate TN/1501/A1 (assay: HMPV antiviral assay Method-B (clinical isolate TN/1501/A1 in LLC-MK2 cells, ATP-Lite readout)). Settings: human metapneumovirus, LLC-MK2, 144 h, hMPV WT1501 (clinical isolate TN/1501/A1), 6 days.
Format: cell-based, Human metapneumovirus (HMPV)
Procedure: In vitro HMPV antiviral activity was evaluated using the clinical isolate TN/1501/A1 and LLC-MK2 cells (ATCC #CCL-7), an immortalized kidney epithelial cell line from Macaca mulatta. Compounds were resuspended in dimethyl sulfoxide (DMSO) at 10 mM and added to a 384-well source plate. The compounds were diluted and transferred onto 384-well assay plates using the Echo-650 automated liquid handling system (Beckman Coulter, Indiana). The test compounds were assessed in duplicate at a top concentration of 10 μM followed by 3-fold serial dilutions to give a total of 10 concentration points. DMSO control wells were also included on the assay plates and were either infected or not, acting as positive and negative controls. TN/1501/A1 virus infections were performed in-suspension with LLC-MK2 cells. The cells were washed twice with PBS and removed from the cell-culture flask with 0.25% trypsin-EDTA (Thermo Fisher Scientific, MA). The trypsin-EDTA was inactivated by resuspending in 2% fetal bovine serum (FBS) and OptiMEM (ThermoFisher Scientific, MA) containing 1% penicillin-streptomycin. Cells were pelleted by centrifuging for 5 minutes at 800 rpm, the supernatant was removed, and cells were suspended in PBS plus 100 μg/mL CaCl2). This step was performed twice. Cells were then resuspended in serum-free (SF)-OptiMEM containing 4 μg/mL TPCK-Trypsin (Sigma Aldrich, MO), 1% penicillin-streptomycin (ThermoFisher Scientific, MA) and 100 μg/mL CaCl2). Cells were counted and seeded at a density of 5,000 cells/well, 12.5 μL/well. Virus infections were done at a multiplicity of infection (MOI) of 0.014 with 12.5 μL added per well. SF-OptiMEM, 12.5 μL/well, was added to the appropriate wells to serve as a virus-free negative control for the assay. The final concentration of TPCK-trypsin was 2 μg/mL. Plates were incubated at 37° C., 5% CO2 for 6 days. After 6 days incubation, 12.5 μL of ATP-Lite (PerkinElmer, MA) was added to each well and the raw luminescence values were determined using the Envision 2104 (Perkin Elmer, MA). The average of the raw luminescence values for the cells and virus only positive control wells was subtracted from all conditions tested and the percent cell health was determined by dividing these values by the average of the cells only negative control wells. EC50 values were then calculated by non-linear regression using a four-parameter curve logistic equation. The curve fit model employed was XLFit Dose Response One Site Model 200: y=(A+(B/(1+((x/C)^D)))), where A is the minimum y value, B is the maximum y value, C is the log EC50 value, and D is the slope factor. […] EC50 ranges are as follows: A<0.5 μM; B>0.5 μM.

Q: With COc1cc(C(=O)NC[C@](O)(c2cc3c(c(-c4csc5c(F)cccc45)n2)OC[C@]3(C)C(N)=O)C2(F)CC2)cc2cn(C3(F)CC3)nc12 [Example 629] as the compound, how does the EC50 read?
A: < 500 nM

Q: For COc1cc(C(=O)NC[C@](O)(c2cc3c(c(-c4csc5c(F)cccc45)n2)OC[C@]3(C)C(N)=O)C2(F)CC2)cc2cn(C(F)F)nc12 [Example 630], which EC50 is on record?
A: < 500 nM

Q: How did the EC50 turn out when C[C@]1(C(N)=O)COc2c1cc([C@@](O)(CNC(=O)c1cc(Cl)c3nn(C4CC4)cc3c1)C1(F)CC1)nc2-c1csc2c(F)cccc12 [Example 631] was run?
A: < 500 nM

Q: With COc1cc(C(=O)NC[C@](O)(c2cc3c(c(-c4csc5c(F)cccc45)n2)OC[C@]3(C)C(N)=O)C2(F)CC2)cc2cn(C3CC3)nc12 [Example 632] as the compound, how does the EC50 read?
A: < 500 nM

Q: How did the EC50 turn out when COc1cc(C(=O)NC[C@](O)(c2cc3c(c(-c4cc(Cl)c(F)c(Cl)c4)n2)OC[C@]3(C)C(N)=O)C2CC2)cc2cn(C3CC3)nc12 [Example 676] was run?
A: < 500 nM

Q: With COc1cc(C(=O)NC[C@](O)(c2cc3c(c(-c4cc(Cl)c(F)c(Cl)c4)n2)OC[C@]3(C)C(N)=O)C2CC2)cc2cn(C(F)F)nc12 [Example 677] as the compound, how does the EC50 read?
A: > 500 nM

Q: How did the EC50 turn out when COc1cc(C(=O)NC[C@](O)(c2cc3c(c(-c4cc(Cl)c(F)c(Cl)c4)n2)OC[C@]3(C)C(N)=O)C2CC2)cc2cn(C3(F)CC3)nc12 [Example 678] was run?
A: < 500 nM

Q: Which EC50 does the source give for COc1cc(C(=O)NC[C@](O)(c2cc3c(c(-c4cc(Cl)c(F)c(Cl)c4)n2)OC[C@]3(C)C(N)=O)C2CC2)cc2cc(Br)cnc12 [Example 679] here?
A: > 500 nM

Q: For C[C@]1(C(N)=O)COc2c1cc([C@@](O)(CNC(=O)c1cc(Cl)c3nn(C4CC4)cc3c1)C1CC1)nc2-c1cc(Cl)c(F)c(Cl)c1 [Example 680], which EC50 is on record?
A: > 500 nM

Q: COc1cc(C(=O)NC[C@](O)(c2cc3c(c(-c4cc(Cl)c(F)c(Cl)c4)n2)OC[C@]3(C)C(N)=O)C2CC2)cc2cc(Cl)c(C)nc12 [Example 681] was tested. Which EC50 did it give?
A: > 500 nM

Q: Cc1cnc2c(Cl)cc(C(=O)NC[C@](O)(c3cc4c(c(-c5cc(Cl)c(F)c(Cl)c5)n3)OC[C@]4(C)C(N)=O)C3CC3)cc2c1 [Example 682] was tested. Which EC50 did it give?
A: > 500 nM

Q: For COc1cc(C(=O)NC[C@](O)(c2cc3c(c(-c4ccc(Cl)c(F)c4F)n2)OC[C@]3(C)C(N)=O)C2CC2)cc2cc(Br)cnc12 [Example 689], which EC50 is on record?
A: < 500 nM

Q: For C[C@]1(C(N)=O)COc2c1cc([C@@](O)(CNC(=O)c1ccc3nn(C4CC4)cc3c1)C1CC1)nc2-c1cc(Cl)c(F)cc1F [Example 690], which EC50 is on record?
A: < 500 nM

Q: For COc1cc(C(=O)NC[C@](O)(c2cc3c(c(-c4ccc(F)cc4)n2)OC[C@]3(C)C(N)=O)C(F)(F)F)cc2cc(Br)c(C)nc12 [Example 769], which EC50 is on record?
A: < 500 nM

Q: How did the EC50 turn out when COc1cc(C(=O)NC[C@](O)(c2cc3c(c(-c4ccc5c(c4)OC(F)(F)O5)n2)OC[C@]3(C)C(N)=O)C(F)(F)F)cc2cc(Br)c(C)nc12 [Example 770] was run?
A: < 500 nM

Q: How did the EC50 turn out when COc1cc(C(=O)NC[C@](O)(c2cc3c(c(-c4ccc(F)cc4)n2)OC[C@]3(C)C(N)=O)C2CC2)cc2cc(Br)c(C)nc12 [Example 771] was run?
A: < 500 nM

Q: COc1cc(C(=O)NC[C@](O)(c2cc3c(c(-c4ccc(F)cc4)n2)OC[C@]3(C)C(N)=O)C2(F)CC2)cc2cc(Br)c(C)nc12 [Example 772] was tested. Which EC50 did it give?
A: < 500 nM

Each compound was assayed on genotype A, "Long" strain RSV (assay: RSV-A assay (CPE protection in Hep-2 cells, ATPlite readout)). Settings: human respiratory syncytial virus, RSV-A Long strain, MOI 0.1, CPE protection, read-out: Human RSV-A (“Long”) EC50.
Format: cell-based, Human respiratory syncytial virus (HRSV)
Method in brief: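 ATPlite luminescence (cellular ATP) served as the measure of cell health after 5 days of infection. Hep-2 cells at 8,000 per well received duplicate 2-fold compound dilutions plus virus at MOI 0.1, and EC50 was calculated from CPE protection.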

Q: How did the EC50 turn out when COc1cc(C(=O)NC[C@](O)(c2cc3c(c(-c4c(F)ccc(Cl)c4Cl)n2)OC[C@]3(C)C(N)=O)C2CC2)cc2cn(C3CC3)nc12 [Example 1289] was run?
A: < 200 nM

Q: For CNC(=O)[C@@]1(C)COc2c1cc([C@@](O)(CNC(=O)c1cc(OC)c3nn(C4CC4)cc3c1)C1CC1)nc2-c1ccc(F)cc1 [Example 1290], which EC50 is on record?
A: < 200 nM

Q: How did the EC50 turn out when COc1cc(C(=O)NC[C@](O)(c2cc3c(c(-c4ccc5c(c4)OC(F)(F)O5)n2)OC[C@]3(C)C(N)=O)C2CC2)cc2sc(C)nc12 [Example 1291] was run?
A: < 200 nM

Q: How did the EC50 turn out when C[C@]1(C(N)=O)COc2c1cc([C@@](O)(CNC(=O)c1ccc3nc(C4CC4)sc3c1)C1CC1)nc2-c1ccc2c(c1)OC(F)(F)O2 [Example 1292] was run?
A: > 200 nM

Q: COc1cc(C(=O)NC[C@](O)(c2cc3c(c(-c4ccc5c(c4)OC(F)(F)O5)n2)OC[C@]3(C)C(N)=O)C2CC2)cc2sc(C3CC3)nc12 [Example 1293] was tested. Which EC50 did it give?
A: < 200 nM
